Laboratory results reported in PMC3493696 (Life sciences, 2012).
Read-outs that look alike come from different tables or passages of the source.

Assays:
[1] = ref Beltramo 2009, cited from earlier work
[2] = rodents, doses of 0.1–100 mg/kg; ref Valenzano et al. 2005; cited from earlier work
mice = assay: Responses of mice to AM-1241 administration; assay type: in vivo, mouse
[3] = 1.0 mg/kg i.v.; ref Dhawan et al. 2006; Petitet et al. 1999; cited from earlier work
[4] = Microsomal metabolism and LC-MS/MS metabolite analysis, human liver microsomes; assay type: in vitro ADME; conditions: 100 µM, 30 minutes, 37°C, NADPH
CB2 vs. CB1 = conditions: ref Beltramo 2009; Bingham et al. 2007; Mancini et al. 2009; Nackley et al. 2003; Quartilho et al. 2003; Yao et al. 2006; cited from earlier work
[5] = Microsomal metabolism and LC-MS/MS metabolite analysis, rat liver microsomes; assay type: in vitro ADME; conditions: 100 µM, 30 minutes, 37°C, NADPH
human serum albumin = human serum albumin (Homo sapiens, UniProt P02768); assay: Binding to aqueous human serum albumin; assay type: in vitro ADME; conditions: 50 µM
[6] = Tissue distribution of AM-1241 in mice after i.v. or p.o. administration; assay type: in vivo, mouse; conditions: 25 mg/kg; for time by which concentration became undetectable: i.v.
[7] = Thermal stability of aqueous AM-1241*HCl solutions; assay type: physicochemical; conditions: 0.003, 0.03, 0.3 and 1 mg/mL, up to 14 days
[8] = Stability in mouse plasma at 37°C; assay type: in vitro ADME; conditions: at least 6 hours, 20 µM
plasma proteins = assay: Plasma-protein binding in undiluted mouse plasma; assay type: in vitro ADME; conditions: up to 50 µM, 30 minute incubation at 37°C, triplicate
[9] = Solution stability in acetonitrile at 37°C; assay type: physicochemical; conditions: at least 24 hours, 20 µM
CB2 [10] = target: T1, CB2 (Homo sapiens, UniProt P34972); conditions: ref Beltramo 2009; Bingham et al. 2007; Mancini et al. 2009; Nackley et al. 2003; Quartilho et al. 2003; Yao et al. 2006; cited from earlier work
[11] = Plasma pharmacokinetics in mice after i.v. or p.o. AM-1241*HCl; assay type: in vivo, mouse
[12] = i.p., murine model; ref Storr et al. 2009; cited from earlier work
[13] = local (intraplantar) administration; ref Malan et al. 2001; cited from earlier work
CB2 [14] = target: T1, CB2; assay: Preliminary experiments: CB2 agonist potency of metabolite; conditions: data not shown
[15] = ref Giblin et al. 2007; cited from earlier work

Chain of human serum albumin (P02768 25-609): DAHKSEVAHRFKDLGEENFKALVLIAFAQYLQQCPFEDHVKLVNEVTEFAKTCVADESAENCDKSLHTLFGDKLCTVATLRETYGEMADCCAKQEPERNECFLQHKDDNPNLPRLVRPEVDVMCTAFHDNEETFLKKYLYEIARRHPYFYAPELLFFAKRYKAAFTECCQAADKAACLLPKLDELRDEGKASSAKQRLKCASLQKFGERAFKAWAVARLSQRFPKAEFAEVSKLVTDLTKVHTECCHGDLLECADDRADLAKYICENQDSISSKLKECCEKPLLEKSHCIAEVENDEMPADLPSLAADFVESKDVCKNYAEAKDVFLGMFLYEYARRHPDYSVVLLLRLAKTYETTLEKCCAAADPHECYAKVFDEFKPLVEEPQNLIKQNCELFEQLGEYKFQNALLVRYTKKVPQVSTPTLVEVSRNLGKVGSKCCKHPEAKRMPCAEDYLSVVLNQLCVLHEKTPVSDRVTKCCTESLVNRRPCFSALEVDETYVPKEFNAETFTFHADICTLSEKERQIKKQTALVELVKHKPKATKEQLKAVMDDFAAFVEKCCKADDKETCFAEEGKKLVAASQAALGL
T1 sequence (P34972 whole entry, species assumed): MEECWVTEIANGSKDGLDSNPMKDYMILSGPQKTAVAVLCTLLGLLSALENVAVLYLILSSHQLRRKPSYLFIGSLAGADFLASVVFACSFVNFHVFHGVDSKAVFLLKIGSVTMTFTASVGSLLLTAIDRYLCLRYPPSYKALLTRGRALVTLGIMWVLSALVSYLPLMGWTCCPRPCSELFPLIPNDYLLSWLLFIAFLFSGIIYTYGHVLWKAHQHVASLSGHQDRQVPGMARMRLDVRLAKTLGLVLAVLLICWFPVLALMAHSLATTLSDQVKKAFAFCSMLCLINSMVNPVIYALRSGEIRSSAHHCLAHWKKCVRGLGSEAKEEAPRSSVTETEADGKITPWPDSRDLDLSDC

COc1ccc2c(c1)c(CCN1CCOCC1)c(C)n2C(=O)c1cccc(Cl)c1Cl [GW405833, reference compound]
dose of maximal effective antihyperalgesic and analgesic activities ([1]; i.p.): 1 to 3 mg/kg | oral bioavailability [2]: 0%

CN1CCCCC1Cn1cc(C(=O)c2cc([N+](=O)[O-])ccc2I)c2ccccc21.Cl (stereo not shown) [AM-1241*HCl]
behavior after administration (mice; 25 mg/kg i.v.): initially somewhat hypoactive, but behaved normally by 90 minutes post-dose | behavior after administration (mice; 25 mg/kg p.o.): remained alert and apparently unaffected | transient gaping response (animals affected) (mice; 25 mg/kg p.o.): two of the twenty-nine animals

Cc1c(C(=O)c2cccc3ccccc23)c2cccc3c2n1[C@H](CN1CCOCC1)CO3 [WIN 55,212-2]
catalepsy [3]: profound catalepsy

CN1CCCCC1Cn1cc(C(=O)c2cc([N+](=O)[O-])ccc2I)c2ccccc21 (racemic) [AM-1241, (R,S)-(2-iodo-5-nitrophenyl)-[1-((1-methyl-piperidin-2-yl)methyl-1H-indol-3-yl]-methanone]
metabolites formed compared with rat liver microsomes [4]: the same metabolites | doses reported efficacious in various preclinical pain models ([1]; i.v., Beltramo et al. 2006, Ohta et al. 2008): up to 6 mg/kg | selectivity for CB2 vs. CB1 (CB2 vs. CB1): up to 340 fold | site of phase I microsomal metabolism (demethylation and hydroxylation products) [5]: primarily on the piperadine moiety | bound to albumin (human serum albumin; 0.4% (w/v) aqueous human serum albumin): 56% | bound to albumin (human serum albumin; 1.0% (w/v) aqueous human serum albumin): 85% | toxicity (mice; 25 mg/kg orally or i.v., necropsies unremarkable): not toxic | transient gaping response (animals affected) (mice; 25 mg/kg p.o.): Two out of 29 mice | gross organ or tissue abnormalities at end-point necropsy (mice; any AM-1241 treatment (25 mg/kg i.v. or p.o.)): No gross organ or tissue abnormalities | time by which concentration became undetectable ([6]; brain): ≤ 120 min | time by which concentration became undetectable ([6]; intestine): ≤ 240 min | time by which concentration became undetectable ([6]; kidney): ≤ 240 min | time by which concentration became undetectable ([6]; liver): ≤ 90 min | detection in brain or liver ([6]; p.o.): not in brain or liver | time by which concentration became undetectable ([6]; plasma): ≤ 240 min | time by which concentration became undetectable ([6]; spleen): ≤ 240 min | stability of aqueous samples ([7]; 4°C): stable | stability of aqueous samples ([7]; room temperature): stable | recovery after incubation (stability) [8]: > 95% | bound to plasma protein (plasma proteins): 99% | recovery after incubation (stability) [9]: > 95% | CB2 affinity (CB2 [10]): low nanomolar | half-life after p.o. relative to i.v. administration ([11]; 25 mg/kg): over 2 fold | plasma half-life ([11]; 25 mg/kg i.v.): 37 min | half-life after p.o. administration ([11]; 25 mg/kg p.o.): 82 min | oral bioavailability ([11]; 25 mg/kg, plasma AUC ratio p.o./i.v.): ~ 21% | daily dose required to reduce experimental colitis [12]: 20 to 40 mg/kg | dose at which maximal analgesic efficacy was reached [13]: 3.3 mg/kg

O=C(c1cc([N+](=O)[O-])ccc1I)c1cn(CC2CCCCN2)c2ccccc12 (stereo not shown) [demethylated metabolite of AM-1241]
CB2 agonist potency compared to the parent compound (CB2 [14]): somewhat less potent

CN1CCCCC1Cn1cc(C(=O)c2ccccc2I)c2ccccc21 (stereo not shown) [AM-2233]
catalepsy [3]: profound catalepsy

O=C(NCC1CCOCC1)c1cnc(Nc2ccc(Cl)cc2Cl)nc1C(F)(F)F [GW842166X]
half-life after p.o. administration [15]: 3 to 5 h
